Test results from patent US20200316122A1, “METHODS OF PRODUCING T CELL POPULATIONS USING P38 MAPK INHIBITORS” (The United States of America,as represented by the …, priority 2017, published 2020).

What was measured:
Mouse T cells [1] = assay: mouse T cells stimulated and expanded 5 days with Birb796: gamma H2AX, cell counts, CD44/CD62L; assay type: cell-based; settings: mouse T cells expanded 5 days in vitro; with increases in the dosage of p38i
Procedure: Mouse T cells were stimulated and the numbers of cells were expanded for 5 days in vitro in the presence of the p38 inhibitor Birb796. The percentages of cells with high levels of gamma H2AX, the percentages of cell counts, and the expression of CD44 and CD62L were measured. As shown in FIGS. 4C-4F, with increases in the dosage of p38 inhibitor […]), the DNA damage in cells was reduced and the cell counts and percentage of CD62L+ cells were increased.

[2] = test system: human healthy donor derived T cells and melanoma patient-derived T cells; assay: human T cells expanded 20-25 days with p38i: CD8+CD62L+ cells; assay type: cell-based; settings: 0.5 uM p38i, vs vehicle
Procedure: The numbers of human healthy donor derived T cells and melanoma patient-derived T cells were expanded for 20-25 days in presence of 0.5 uM […]. The percentage of CD8+CD62L+ cells was measured.

Mouse T cells [3] = assay: cell proliferation by dilution of CSFE proliferation dye; assay type: cell-based; settings: hgp100 peptide or anti-CD3/CD28 stimulation, 4 days, 0.5 μM
Procedure: Mouse T cells were stimulated using either hgp100 peptide or anti-CD3/CD28 antibodies, and the numbers of cells were expanded for 4 days in vitro in the presence of 0.5 μM p38 inhibitor. Cell proliferation was measured.

Mouse T cells [4] = assay: apoptosis during expansion by Annexin; assay type: cell-based; settings: 4 days, 0.5 μM
Procedure: Mouse T cells were stimulated and the numbers of cells were expanded for 4 days in vitro in the presence of 0.5 μM p38 inhibitor. The levels of cells which underwent apoptosis were measured.

Mouse T cells [5] = assay: intracellular staining and FACS of phosphorylation of Akt and its substrates; assay type: cell-based; settings: 5 days, 0.5 μM
Procedure: Mouse T cells were stimulated and the numbers of cells were expanded for 5 days in vitro in presence of 0.5 μM p38 inhibitor. Intracellular staining and FACS analysis was performed to measure phosphorylation of Akt and its substrates in T cells.

Mouse T cells [6] = assay: metabolome analysis; assay type: cell-based; settings: 5 days, 0.5 μM, vs vehicle
Procedure: Mouse T cells were stimulated and the numbers of cells were expanded for 5 days in vitro in the presence of 0.5 μM p38 inhibitor. […] FIG. 7B is a schematic illustrating glycolysis and the citric acid cycle.

Mouse T cells [7] = assay: RNA extraction and qPCR gene expression; assay type: cell-based; settings: 5 days, 0.5 μM, qPCR
Procedure: Mouse T cells were stimulated and expanded for 5 days in vitro in the presence of 0.5 μM p38 inhibitor. RNA extraction and qPCR analysis were performed to determine differences in gene expression.

Mouse T cells [8] = assay: cellular and mitochondrial ROS by FACS; assay type: cell-based; settings: 10 days, 0.5 μM
Procedure: Mouse T cells were stimulated and expanded for 10 days in vitro in the presence of 0.5 μM p38 inhibitor. Cellular and mitochondrial ROS levels were measured using FACS analysis.

Mouse T cells [9] = assay: SEAHORSE analysis of respiratory capacity; assay type: cell-based; settings: 5 days, 0.5 μM
Procedure: Mouse T cells were stimulated and expanded for 5 days in vitro in the presence of 0.5 μM p38 inhibitor. SEAHORSE analysis was performed to determine spare respiratory capacity of cells.

Mouse T cells [10] = assay: cytokine production after brief anti-CD3/anti-CD28 stimulation; assay type: cell-based; settings: 10 days, 0.5 μM
Procedure: Mouse T cells were stimulated and expanded for 10 days in vitro in the presence of 0.5 μM p38 inhibitor. Cells were briefly stimulated with anti-CD3/anti-CD28 in the presence of GOLGI-STOP protein transport inhibitor and GOLGI-PLUG protein transport inhibitor to determine the cytokine production ability of cells. As shown in FIGS. 10A-10C, IFN-gamma and IL-2 production increased following […] treatment. TNF alpha production decreased following […] treatment.

Human T cells = assay: IFN-gamma production by human T cells expanded with p38i; assay type: cell-based; settings: human T cells expanded 20-25 days
From the text: Human T cells were expanded for 20-25 days in the presence of […].

Subcutaneous tumor = assay: adoptive cell transfer of Pmel-1 T cells expanded ex vivo with p38 inhibitor into tumor-bearing mice; assay type: in vivo; settings: mice receiving Pmel-1 T cells expanded ex vivo 10 days with p38 inhibitor
Procedure: Subcutaneous tumor growth was measured in mice receiving adoptive cell transfer of Pmel-1 T cells which were expanded ex vivo for 10 days in the presence of p38 inhibitor. Tumor area (FIG. 10G) and overall survival (FIG. 10H) are shown. Significance for tumor growth kinetics were calculated by Wilcoxon rank-sum test. Survival significance was assessed by a log-rank Mantel-Cox test (n=5 mice per treatment group).

[11] = test system: CD19 antigen expressing NALM6 cells; assay: specific cytolysis by anti-CD19 CAR human T cells expanded with p38i; assay type: cell-based; settings: anti-CD19 CAR T cells from 2 healthy donors, expanded 20-25 days, overnight coculture with NALM6
Procedure: Human T cells from 2 healthy donors were transduced with a retrovirus encoding an anti-CD19 CAR and the numbers of cells were expanded for 20-25 days in the presence of […]. Specific cytolysis was measured. […] T cells and NALM6 cells were cocultured overnight.

`Cc1ccc(-n2nc(C(C)(C)C)cc2NC(=O)Nc2ccc(OCCN3CCOCC3)c3ccccc23)cc1` [BIRB 796, doramapimod] was tested, and the “DNA damage in cells (percentage of cells with high levels of gamma H2AX)” value (Mouse T cells [1]) was “reduced”, the cell counts (Mouse T cells [1]) was “increased” and the “percentage of CD62L+ cells” value (Mouse T cells [1]) was “increased”. The “percentage of CD8+CD62L+ cells” value ([2]; healthy donor T cells) was “increased”, the “percentage of CD8+CD62L+ cells” value ([2]; melanoma patient T cells) was “increased” and the “cell proliferation (dilution of CSFE proliferation dye)” value (Mouse T cells [3]) was “did not affect cell proliferation”. The “cell death during expansion (apoptotic cell marker Annexin)” value (Mouse T cells [4]) was “reduced cell death”, the “phosphorylation of Akt and its substrates” value (Mouse T cells [5]) was “preserved memory-like characteristics of T cells independent of the Akt pathway” and the alpha-ketoglutarate production (Mouse T cells [6]) was “reduced”. The glucose production (Mouse T cells [6]) was “reduced”, the lactate production (Mouse T cells [6]) was “reduced” and the “production of 9-HODE/13-HODE” value (Mouse T cells [6]) was “reduced”. The “production of linoleate (18:2n6)” value (Mouse T cells [6]) was “reduced”, the “production of oxidized GSSG” value (Mouse T cells [6]) was “reduced” and the succinate production (Mouse T cells [6]) was “reduced”. For the same compound, the “mRNA expression of Slc2a1” value (Mouse T cells [7]) was “reduced”, the “mRNA expression of catalase” value (Mouse T cells [7]) was “reduced” and the “mitochondrial ROS” value (Mouse T cells [8]) was “reduced”. For the same compound, the “total ROS” value (Mouse T cells [8]) was “reduced”, the total oxygen consumption (Mouse T cells [9]) was “increased” and the IFN-gamma production (Mouse T cells [10]) was “increased”. The IL-2 production (Mouse T cells [10]) was “increased”, the TNF alpha production (Mouse T cells [10]) was “decreased” and the “ability to produce the effector cytokine IFN-gamma” value (Human T cells) was “enhanced ability”. For the same compound, the overall survival (Subcutaneous tumor) was “promote survival”, the tumor area (Subcutaneous tumor) was “enhanced the ability of the transferred cells to reduce tumor area” and the specific cytolysis [11] was “lysed in higher numbers”.
